Measured values published in PubChem BioAssay AID1918949 (Molecular Pharmacology Branch, DTP, NCI, 2023).
Several values for one entry are separate records, joined by “and”; a condition that tells them apart may be missing. Equal values may be shown once.

System: K24384-001-R-PDC complex spheroid viability
Experiment: Anticancer human tumor K24384-001-R-PDC patient-derived pancreatic adenocarcinoma cell line growth inhibition
Details: for viability, T/C: stronger effect = lower value
How it was run: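 Drug combinations with the LSD1 inhibitor iadademstat tested on tumor cells co-cultured as spheroids with endothelial cells and mesenchymal stem cells. Concentrations descended in half-log increments from clinical Cmax or 10 microM.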

[1] = curve of first compound, second compound 0.1 µM
[2] = curve of first compound, second compound 0.316 µM
[3] = curve of first compound, second compound 1 µM
[4] = curve of first compound, second compound 3.16 µM
[5] = curve of first compound, second compound 10 µM
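Note: spheroids exposed to agents for seven days before luminescence viability reading.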
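Throughout, for viability, T/C: 100% = DMSO vehicle control viability.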

With O=C(C=Cc1cccc(S(=O)(=O)Nc2ccccc2)c1)NO the viability, T/C (compound 0.00949 µM) was 120% and 101%, the viability, T/C (compound 0.03 µM) was 127% and 112% and the viability, T/C (compound 0.0949 µM) was 114% and 105%. For the same molecule, the viability, T/C (compound 0.3 µM) was 38% and 43.9%, the viability, T/C (compound 0.949 µM) was 4.5% and 5.62% and the viability, T/C (compound 3 µM) was 0.23% and 0.24%. The IC50 (curve of compound) was 250 nM and 268 nM.

Cn1ncnc1C1c2n[nH]c(=O)c3cc(F)cc(c23)NC1c1ccc(F)cc1 (centres undefined) was tested, and the viability, T/C (compound 0.000316 µM) was 108% and 99.6%, the viability, T/C (compound 0.001 µM) was 105% and 115% and the viability, T/C (compound 0.00316 µM) was 87.1% and 102%. For the same molecule, the viability, T/C (compound 0.01 µM) was 93.5% and 95%, the viability, T/C (compound 0.0316 µM) was 90.6% and 95.1% and the viability, T/C (compound 0.1 µM) was 80.4% and 76.9%. The IC50 (curve of compound) was > 100 nM.

For CCc1c2c(nc3ccc(O)cc13)-c1cc3c(c(=O)n1C2)COC(=O)[C@]3(O)CC + NC1CC1c1ccc(-c2cccc(O)c2)cc1, the IC50 [1] was < 0.949 nM, the IC50 [2] was < 0.949 nM and the IC50 [3] was < 0.949 nM. For the same molecule, the IC50 [4] was < 0.949 nM, the IC50 [5] was < 0.949 nM and the viability, T/C (second compound 0.1 µM, first compound 0.000949 µM) was 38.8%. The viability, T/C (second compound 0.1 µM, first compound 0.003 µM) was 32.7%, the viability, T/C (second compound 0.1 µM, first compound 0.00949 µM) was 28.5% and the viability, T/C (second compound 0.1 µM, first compound 0.03 µM) was 8.07%. For the same molecule, the viability, T/C (second compound 0.1 µM, first compound 0.0949 µM) was 5.66%, the viability, T/C (second compound 0.1 µM, first compound 0.3 µM) was 4.56% and the viability, T/C (second compound 0.316 µM, first compound 0.000949 µM) was 34.2%. It also gave a viability, T/C (second compound 0.316 µM, first compound 0.003 µM) of 30.9%, a viability, T/C (second compound 0.316 µM, first compound 0.00949 µM) of 31.5% and a viability, T/C (second compound 0.316 µM, first compound 0.03 µM) of 10.9%. For the same molecule, the viability, T/C (second compound 0.316 µM, first compound 0.0949 µM) was 8.49%, the viability, T/C (second compound 0.316 µM, first compound 0.3 µM) was 5.16% and the viability, T/C (second compound 1 µM, first compound 0.000949 µM) was 36.8%. It also gave a viability, T/C (second compound 1 µM, first compound 0.003 µM) of 34.2%, a viability, T/C (second compound 1 µM, first compound 0.00949 µM) of 26.4% and a viability, T/C (second compound 1 µM, first compound 0.03 µM) of 7.42%. It also gave a viability, T/C (second compound 1 µM, first compound 0.0949 µM) of 4.74%, a viability, T/C (second compound 1 µM, first compound 0.3 µM) of 4.43% and a viability, T/C (second compound 3.16 µM, first compound 0.000949 µM) of 37.1%. The viability, T/C (second compound 3.16 µM, first compound 0.003 µM) was 33.7%, the viability, T/C (second compound 3.16 µM, first compound 0.00949 µM) was 25.8% and the viability, T/C (second compound 3.16 µM, first compound 0.03 µM) was 7.05%. It also gave a viability, T/C (second compound 3.16 µM, first compound 0.0949 µM) of 4.62%, a viability, T/C (second compound 3.16 µM, first compound 0.3 µM) of 4.99% and a viability, T/C (second compound 10 µM, first compound 0.000949 µM) of 43.4%. It also gave a viability, T/C (second compound 10 µM, first compound 0.003 µM) of 34.2%, a viability, T/C (second compound 10 µM, first compound 0.00949 µM) of 24% and a viability, T/C (second compound 10 µM, first compound 0.03 µM) of 5.88%. It also gave a viability, T/C (second compound 10 µM, first compound 0.0949 µM) of 5.79% and a viability, T/C (second compound 10 µM, first compound 0.3 µM) of 4.12%.

In the case of O=C(c1cc(Cc2n[nH]c(=O)c3ccccc23)ccc1F)N1CCN(C(=O)C2CC2)CC1 + NC1CCC(NC2CC2c2ccccc2)CC1, the IC50 [1] is reported as > 10000 nM, the IC50 [2] is reported as > 10000 nM and the IC50 [3] is reported as > 10000 nM. The IC50 [4] was > 10000 nM, the IC50 [5] was > 10000 nM and the viability, T/C (second compound 0.1 µM, first compound 0.0316 µM) was 75.1%. It also gave a viability, T/C (second compound 0.1 µM, first compound 0.1 µM) of 79.7%, a viability, T/C (second compound 0.1 µM, first compound 0.316 µM) of 81.6% and a viability, T/C (second compound 0.1 µM, first compound 1 µM) of 86.5%. The viability, T/C (second compound 0.1 µM, first compound 3.16 µM) was 69.3%, the viability, T/C (second compound 0.1 µM, first compound 10 µM) was 91.8% and the viability, T/C (second compound 0.316 µM, first compound 0.0316 µM) was 74.6%. The viability, T/C (second compound 0.316 µM, first compound 0.1 µM) was 74.8%, the viability, T/C (second compound 0.316 µM, first compound 0.316 µM) was 79.5% and the viability, T/C (second compound 0.316 µM, first compound 1 µM) was 71.2%. It also gave a viability, T/C (second compound 0.316 µM, first compound 3.16 µM) of 79.4%, a viability, T/C (second compound 0.316 µM, first compound 10 µM) of 77.8% and a viability, T/C (second compound 1 µM, first compound 0.0316 µM) of 78.1%. For the same molecule, the viability, T/C (second compound 1 µM, first compound 0.1 µM) was 75.8%, the viability, T/C (second compound 1 µM, first compound 0.316 µM) was 75.3% and the viability, T/C (second compound 1 µM, first compound 1 µM) was 72.4%. It also gave a viability, T/C (second compound 1 µM, first compound 3.16 µM) of 75.2%, a viability, T/C (second compound 1 µM, first compound 10 µM) of 81% and a viability, T/C (second compound 3.16 µM, first compound 0.0316 µM) of 81.9%. For the same molecule, the viability, T/C (second compound 3.16 µM, first compound 0.1 µM) was 81.8%, the viability, T/C (second compound 3.16 µM, first compound 0.316 µM) was 77.8% and the viability, T/C (second compound 3.16 µM, first compound 1 µM) was 75.6%. The viability, T/C (second compound 3.16 µM, first compound 3.16 µM) was 69.7%, the viability, T/C (second compound 3.16 µM, first compound 10 µM) was 71.1% and the viability, T/C (second compound 10 µM, first compound 0.0316 µM) was 75.2%. It also gave a viability, T/C (second compound 10 µM, first compound 0.1 µM) of 101%, a viability, T/C (second compound 10 µM, first compound 0.316 µM) of 68.3% and a viability, T/C (second compound 10 µM, first compound 1 µM) of 73.4%. The viability, T/C (second compound 10 µM, first compound 3.16 µM) was 65% and the viability, T/C (second compound 10 µM, first compound 10 µM) was 68.8%.
